Assays:
[1] = target: T1, PI 3-kinase delta (Homo sapiens, UniProt O00329); assay: Cellular assay J1, p-Akt (S473) in Rat-1 cells, Surefire format; assay type: cell-based; conditions: non-asterisked data: version J1 (Surefire format), Rat-1 cells; read-out: Assay J PI3Kδ IC50
Text: Cellular Assays for PI 3-Kinase Alpha (H1), Beta (I1) and Delta (J1): Surefire Format
AlphaScreen (Amplified Luminescent Proximity Homogeneous Assay, ALPHA, Perkin Elmer) is a non-radioactive bead-based proximity assay technology to study biomolecular interactions in a homogenous microtiter plate format. The brand name SureFire denotes AlphaScreen assays that are adapted to quantify the phosphorylation of endogenous cellular proteins in cell lysates, by using matched antibody pairs, which consist of an anti-phospho-kinase and an anti-kinase antibody. The assay allows characterization of kinase signaling in cells as well as measurement of kinase inhibitor effects.
Using Rat-1 cells stably expressing myr-HA-tagged versions of the human PI3Kdelta, PI3Kalpha, or PI3Kbeta p110 catalytic subunit isoforms, the assay was developed as a two-plate protocol in a 384-well format.
For compound testing, the cells were seeded at a density of 4000 (Rat-1_PI3Kdelta), 7500 (Rat-1_PI3Kalpha), or 6200 (Rat-1_PI3Kbeta) cells in 20 μl complete growth medium into cell culture treated 384-well plates and were grown at 37° C./5% CO2/90% humidity for 24 h. Shortly before compound transfer, the complete medium was removed, 30 μl assay buffer (DMEM high glucose, 1×MEM NEAA, 10 mM HEPES, 2 mM L-glutamine, 0.1% (w/v) BSA) was added and 10 μl of the compound predilutions were transferred to the cells.

[2] = target: PI 3-kinase gamma (Homo sapiens, UniProt P48736); assay: TR-FRET Adapta assay, assay E; assay type: biochemical; conditions: for IC50: read-out: Assay E PI3Kγ IC50
Experimental: TR-FRET Adapta Assay for PI 3-Kinase Gamma (E), PI 3-Kinase Delta (F)
The TR-FRET Adapta™ Universal Kinase Assay Kit was purchased from Invitrogen Corporation (Carlsbad/CA, USA) (Cat. No. PV5099).
PIK3CD substrate phosphatidylinositol (PI) was obtained from Invitrogen (vesicules consisting of 2 mM phosphatidylinositol (PI) in 50 mM HEPES pH7.5; Cat. No. PV5371). PIK3CG substrate phosphatidylinositol-4,5-bisphosphate (PIP(4,5)2 was obtained from Invitrogen (PIP2:PS large unilamellar vesicules consisting of 1 mM PIP2: 19 mM PS in 50 mM HEPES pH7.5, 3 mM MgCl2, 1 mM EGTA; Cat. No. PV5100).
Time-Resolved Fluorescence Resonance Energy Transfer (TR-FRET) is a technology based on energy transfer between two adjacent dyes, from an excited electron in one dye (the donor) to an electron of an adjacent dye (the acceptor) through resonance, then released as a photon. This energy transfer is detected by an increase in the fluorescence emission of the acceptor, and a decrease in the fluorescence emission of the donor. TR-FRET assays for protein kinases use a long-lifetime lanthanide Terbium or Europium chelates as the donor species which overcome interference from compound autofluorescence or light scatter from precipitated compounds, by introducing a delay after excitation by a flashlamp excitation source. Results are often expressed as a ratio of the intensities of the acceptor and donor fluorophores. The ratiometric nature of such a value corrects for differences in assay volumes between wells, as well as corrects for quenching effects due to colored compounds. The Adapta™ assay can be divided into two phases: a kinase reaction phase and an ADP detection phase. In the kinase reaction phase, all kinase reaction components are added to the well and the reaction is allowed to incubate for a set period of time specific for each kinase. […] In the presence of an inhibitor, the amount of ADP formed by the kinase reaction is reduced, and the resulting intact antibody-tracer interaction maintains a high TR-FRET signal.
50 nL of compound dilutions were dispensed onto white 384-well small volume polystyrene plate. Then 5 μL of either PI 3-kinase gamma or PI 3-kinase delta and lipid substrate (PI or PIP2:PS) followed by 5 μL of ATP (final assay volume 10 μL) are incubated at RT. The standard reaction buffer for the Adapta™ TR-FRET assay contained 10 mM Tris-HCl pH 7.5, 3 mM MgCl2, 50 mM NaCl, 1 mM DTT, 0.05% CHAPS 3-[(3-cholamidopropyl)dimethylammonio]-1-propanesulfonate).
Data are analyzed using Excel fit software or Graphpad Prism. IC50 values were derived by fitting a sigmoidal dose-response curve to a plot of assay readout over inhibitor concentration. All fits were performed with the program XLfit4 (ID Business Solutions, Guildford, UK). […] All fits were performed with the program XLfit4 (ID Business Solutions, Guildford, UK).

[3] = target: T2, PI 3-kinase alpha (Homo sapiens, UniProt P42336); assay: Kinase Glo Luminescent Kinase Assay (Kglo), assay A; assay type: biochemical; conditions: read-out: Assay A PI3Kα IC50
Target sequence in this assay (P42336 whole entry): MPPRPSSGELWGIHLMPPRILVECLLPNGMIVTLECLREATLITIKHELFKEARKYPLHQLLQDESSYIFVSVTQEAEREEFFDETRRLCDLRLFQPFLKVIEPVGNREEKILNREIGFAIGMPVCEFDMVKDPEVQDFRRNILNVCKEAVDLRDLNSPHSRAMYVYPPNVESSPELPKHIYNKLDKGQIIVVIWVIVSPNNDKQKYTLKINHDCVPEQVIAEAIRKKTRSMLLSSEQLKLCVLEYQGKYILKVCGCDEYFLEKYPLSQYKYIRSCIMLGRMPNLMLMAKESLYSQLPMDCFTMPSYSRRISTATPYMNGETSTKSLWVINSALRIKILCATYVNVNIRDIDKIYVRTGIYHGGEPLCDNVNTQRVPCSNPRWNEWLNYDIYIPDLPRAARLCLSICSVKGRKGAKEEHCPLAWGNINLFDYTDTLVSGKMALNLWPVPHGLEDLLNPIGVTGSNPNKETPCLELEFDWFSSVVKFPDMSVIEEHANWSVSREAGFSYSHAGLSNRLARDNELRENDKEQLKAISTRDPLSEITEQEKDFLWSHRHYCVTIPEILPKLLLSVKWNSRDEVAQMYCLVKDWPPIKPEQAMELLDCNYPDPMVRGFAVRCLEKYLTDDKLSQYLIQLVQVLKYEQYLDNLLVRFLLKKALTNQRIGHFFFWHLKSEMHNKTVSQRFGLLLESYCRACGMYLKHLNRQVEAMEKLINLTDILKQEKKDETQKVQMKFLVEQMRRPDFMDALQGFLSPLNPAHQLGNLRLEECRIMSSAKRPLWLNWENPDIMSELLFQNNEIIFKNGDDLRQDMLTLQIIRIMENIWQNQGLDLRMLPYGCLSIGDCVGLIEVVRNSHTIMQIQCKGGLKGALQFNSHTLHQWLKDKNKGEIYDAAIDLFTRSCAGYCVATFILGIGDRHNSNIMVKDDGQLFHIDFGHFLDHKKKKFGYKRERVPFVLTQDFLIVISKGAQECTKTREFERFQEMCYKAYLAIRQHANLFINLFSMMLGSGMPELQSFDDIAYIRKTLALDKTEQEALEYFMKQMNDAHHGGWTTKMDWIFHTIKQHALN

[4] = target: T2, PI 3-kinase alpha; assay: Cellular assay H1, p-Akt (S473) in Rat-1 cells, Surefire format; assay type: cell-based; conditions: non-asterisked data: version H1 (Surefire format), Rat-1 cells; read-out: Assay H PI3Kα IC50
Target sequence in this assay (P42336 whole entry): as above
Target sequence in this assay (Q63787 whole entry partner): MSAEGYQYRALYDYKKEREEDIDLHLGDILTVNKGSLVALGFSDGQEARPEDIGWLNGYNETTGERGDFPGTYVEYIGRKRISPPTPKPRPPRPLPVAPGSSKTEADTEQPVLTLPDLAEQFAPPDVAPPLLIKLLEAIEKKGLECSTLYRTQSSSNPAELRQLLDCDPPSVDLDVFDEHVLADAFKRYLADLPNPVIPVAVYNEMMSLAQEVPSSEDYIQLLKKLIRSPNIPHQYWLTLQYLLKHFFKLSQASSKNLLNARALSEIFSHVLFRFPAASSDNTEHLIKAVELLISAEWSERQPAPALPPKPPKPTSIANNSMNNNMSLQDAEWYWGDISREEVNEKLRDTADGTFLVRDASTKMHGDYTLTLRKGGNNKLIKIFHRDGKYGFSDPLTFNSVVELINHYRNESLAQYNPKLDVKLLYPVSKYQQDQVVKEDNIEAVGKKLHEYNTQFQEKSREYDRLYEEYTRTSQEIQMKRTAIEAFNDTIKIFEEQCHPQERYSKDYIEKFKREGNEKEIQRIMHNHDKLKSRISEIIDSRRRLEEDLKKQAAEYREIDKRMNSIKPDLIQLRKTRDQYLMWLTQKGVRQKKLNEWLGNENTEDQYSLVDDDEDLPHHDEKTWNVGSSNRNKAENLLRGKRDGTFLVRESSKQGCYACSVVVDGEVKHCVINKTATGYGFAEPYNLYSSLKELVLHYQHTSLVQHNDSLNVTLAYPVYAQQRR

[5] = target: T3, PI 3-kinase beta (Homo sapiens, UniProt P42338); assay: Cellular assay I1, p-Akt (S473) in Rat-1 cells, Surefire format; assay type: cell-based; conditions: non-asterisked data: version I1 (Surefire format), Rat-1 cells; read-out: Assay I PI3Kβ IC50
Target sequence in this assay (P42338 whole entry): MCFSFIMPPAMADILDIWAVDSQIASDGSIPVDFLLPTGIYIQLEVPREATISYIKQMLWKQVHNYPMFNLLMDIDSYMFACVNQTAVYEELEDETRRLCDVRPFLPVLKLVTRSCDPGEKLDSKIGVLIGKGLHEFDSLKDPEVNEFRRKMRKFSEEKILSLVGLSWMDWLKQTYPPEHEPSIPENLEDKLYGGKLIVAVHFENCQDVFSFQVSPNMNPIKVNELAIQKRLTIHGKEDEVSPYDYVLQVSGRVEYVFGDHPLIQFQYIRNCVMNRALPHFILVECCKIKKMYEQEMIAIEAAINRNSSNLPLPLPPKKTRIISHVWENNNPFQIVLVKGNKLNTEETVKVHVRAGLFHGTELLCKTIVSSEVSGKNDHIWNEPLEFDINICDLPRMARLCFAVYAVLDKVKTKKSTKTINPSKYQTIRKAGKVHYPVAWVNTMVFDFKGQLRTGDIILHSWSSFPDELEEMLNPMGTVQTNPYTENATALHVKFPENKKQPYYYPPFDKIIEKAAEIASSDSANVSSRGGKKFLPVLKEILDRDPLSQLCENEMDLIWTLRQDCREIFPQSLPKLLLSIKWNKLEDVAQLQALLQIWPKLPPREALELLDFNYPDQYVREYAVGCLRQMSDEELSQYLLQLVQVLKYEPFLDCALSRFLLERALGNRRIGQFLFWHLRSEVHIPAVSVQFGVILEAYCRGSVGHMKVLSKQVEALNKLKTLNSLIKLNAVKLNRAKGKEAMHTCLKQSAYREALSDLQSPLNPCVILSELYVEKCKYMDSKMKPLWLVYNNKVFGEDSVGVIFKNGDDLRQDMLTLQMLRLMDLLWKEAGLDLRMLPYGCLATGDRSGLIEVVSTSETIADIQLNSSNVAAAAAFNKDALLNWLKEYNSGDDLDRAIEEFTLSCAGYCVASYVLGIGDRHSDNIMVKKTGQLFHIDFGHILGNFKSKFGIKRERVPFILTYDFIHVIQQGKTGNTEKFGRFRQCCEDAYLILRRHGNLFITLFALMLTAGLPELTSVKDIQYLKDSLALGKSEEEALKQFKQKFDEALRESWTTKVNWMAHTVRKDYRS
Target sequence in this assay (Q63787 whole entry partner): as the sequence (Q63787 whole entry partner) above

[6] = target: Vps34 (Homo sapiens, UniProt Q8NEB9); assay: Kinase Glo Luminescent Kinase Assay (Kglo), assay C; assay type: biochemical; conditions: read-out: Assay C VPS34 IC50
Vps34, sequence (Q8NEB9 whole entry, species assumed): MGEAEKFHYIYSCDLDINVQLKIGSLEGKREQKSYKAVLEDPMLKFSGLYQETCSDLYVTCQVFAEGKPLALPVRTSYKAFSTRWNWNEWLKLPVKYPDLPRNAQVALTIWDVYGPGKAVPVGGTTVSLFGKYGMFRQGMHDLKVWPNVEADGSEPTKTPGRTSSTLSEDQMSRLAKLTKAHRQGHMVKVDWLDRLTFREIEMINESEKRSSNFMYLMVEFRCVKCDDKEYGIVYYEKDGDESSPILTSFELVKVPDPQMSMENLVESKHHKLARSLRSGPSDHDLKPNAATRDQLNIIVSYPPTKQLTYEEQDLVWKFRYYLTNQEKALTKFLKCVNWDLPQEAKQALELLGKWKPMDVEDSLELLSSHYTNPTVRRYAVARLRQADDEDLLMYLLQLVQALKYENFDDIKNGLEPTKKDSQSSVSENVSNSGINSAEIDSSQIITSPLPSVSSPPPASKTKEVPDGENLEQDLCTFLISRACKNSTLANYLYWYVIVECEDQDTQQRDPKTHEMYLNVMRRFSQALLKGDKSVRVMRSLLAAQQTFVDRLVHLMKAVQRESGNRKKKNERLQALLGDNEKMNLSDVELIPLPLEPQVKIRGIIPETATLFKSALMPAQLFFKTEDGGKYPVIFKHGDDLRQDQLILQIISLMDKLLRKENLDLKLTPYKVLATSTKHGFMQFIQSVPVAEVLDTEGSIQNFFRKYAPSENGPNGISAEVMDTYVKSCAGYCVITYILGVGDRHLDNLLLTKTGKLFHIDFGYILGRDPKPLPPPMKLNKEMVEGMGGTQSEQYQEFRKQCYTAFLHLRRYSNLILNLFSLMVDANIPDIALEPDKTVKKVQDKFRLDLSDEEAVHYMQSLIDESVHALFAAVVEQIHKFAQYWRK

[7] = target: T3, PI 3-kinase beta; assay: Kinase Glo Luminescent Kinase Assay (Kglo), assay B; assay type: biochemical; conditions: read-out: Assay B PI3Kβ IC50
Target sequence in this assay (P42338 whole entry): as the sequence (P42338 whole entry) above
Target sequence in this assay (P27986 461-568 partner): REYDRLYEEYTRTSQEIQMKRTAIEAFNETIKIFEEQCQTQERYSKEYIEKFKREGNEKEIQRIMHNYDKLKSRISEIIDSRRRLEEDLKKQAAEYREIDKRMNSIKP

[8] = target: mTOR (Homo sapiens, UniProt P42345); assay: Lanthascreen kinase binding assay, assay G; conditions: read-out: Assay G mTOR IC50
Experimental: Lanthascreen™ Kinase Binding Assay for mTOR (G)
Binding of an inhibitor to the kinase competes for binding with the tracer, resulting in a loss of FRET.
50 nL of compound dilutions were dispensed onto white 384-well small volume polystyrene plate.

[9] = target: PI 4-kinase beta (Homo sapiens, UniProt Q9UBF8); assay: Kinase Glo Luminescent Kinase Assay (Kglo), assay D; assay type: biochemical; conditions: read-out: Assay D PI4Kβ IC50
[10] = target: T1, PI 3-kinase delta; assay: TR-FRET Adapta assay, assay F
[11] = Microsomal clearance assay (M); conditions: intrinsic clearance in rat liver microsomes
Experimental: The experiments were performed in 96-well glass plates at 37° C. on an automated Tecan EVO platform. Test compounds at a concentration of 10 mM in pure DMSO were diluted 1:1000 in water to 10 μM. […] Reactions were initiated by the addition of 150 μL of a cofactor solution containing 2 mM NADPH.

PI 3-kinase gamma, sequence (P48736 whole entry): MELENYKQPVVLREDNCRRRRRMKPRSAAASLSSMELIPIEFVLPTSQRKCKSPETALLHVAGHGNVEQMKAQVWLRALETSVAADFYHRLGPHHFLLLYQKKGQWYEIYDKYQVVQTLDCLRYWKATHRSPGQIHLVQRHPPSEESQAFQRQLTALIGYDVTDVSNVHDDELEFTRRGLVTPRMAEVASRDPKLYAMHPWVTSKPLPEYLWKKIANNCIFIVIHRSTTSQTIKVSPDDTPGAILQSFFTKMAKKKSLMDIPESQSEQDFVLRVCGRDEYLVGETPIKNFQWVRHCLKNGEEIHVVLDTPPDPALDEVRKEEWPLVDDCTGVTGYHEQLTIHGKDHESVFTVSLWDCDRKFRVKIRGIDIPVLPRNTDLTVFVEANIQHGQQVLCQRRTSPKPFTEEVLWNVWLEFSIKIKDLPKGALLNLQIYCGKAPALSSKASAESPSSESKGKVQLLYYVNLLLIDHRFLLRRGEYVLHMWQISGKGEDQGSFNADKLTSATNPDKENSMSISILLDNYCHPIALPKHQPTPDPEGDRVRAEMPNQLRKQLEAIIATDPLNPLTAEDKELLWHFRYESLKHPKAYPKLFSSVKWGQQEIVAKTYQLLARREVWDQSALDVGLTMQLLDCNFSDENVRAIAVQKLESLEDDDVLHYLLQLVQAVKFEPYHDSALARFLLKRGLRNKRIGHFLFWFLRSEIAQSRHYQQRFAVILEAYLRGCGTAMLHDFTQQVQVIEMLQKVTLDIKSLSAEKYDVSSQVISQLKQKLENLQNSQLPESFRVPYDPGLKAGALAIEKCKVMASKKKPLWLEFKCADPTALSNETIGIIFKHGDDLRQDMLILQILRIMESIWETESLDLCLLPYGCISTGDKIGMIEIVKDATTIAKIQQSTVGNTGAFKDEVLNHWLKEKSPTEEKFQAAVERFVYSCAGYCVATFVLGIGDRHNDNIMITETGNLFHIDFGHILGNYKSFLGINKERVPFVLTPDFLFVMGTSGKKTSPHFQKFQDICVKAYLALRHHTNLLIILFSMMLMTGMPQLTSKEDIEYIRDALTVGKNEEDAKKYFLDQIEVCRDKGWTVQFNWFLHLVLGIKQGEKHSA

Compound | IC50 [1] [nM] | IC50 [2] [nM] | IC50 [3] [nM] | IC50 [4] [nM] | IC50 [5] [nM] | IC50 [6] [nM] | IC50 [7] [nM] | IC50 [8] [nM] | IC50 [9] [nM] | IC50 ([10]; read-out: Assay F PI3Kδ IC50) [nM] | activity in assay E ([2]; TR-FRET Adapta, PI 3-kinase gamma) | Assay M RLM CI(int) [11] [µL/min/mg] | IC50 [10] [nM]
Cc1ccc(S(=O)(=O)NCCC(C)(C)O)cc1-c1cnc(N)c(-c2cc(C(F)(F)F)nn2C)n1 [Example 119, 3-(5-Amino-6-(1-methyl-3-(trifluoromethyl)-1H-pyrazol-5-yl)pyrazin-2-yl)-N-(3-hydroxy-3-methylbutyl)-4-methylbenzenesulfonamide] | 1760 | 118 | 600 | 1640 | 3060 | > 9100 | > 9100 | 4310 | > 9100 | 710 | – | – | –
Cc1ncc(-c2nc(-c3cc(S(=O)(=O)N[C@H]4CC[C@H](O)CC4)ccc3C)cnc2N)s1 [Example 14, Trans-3-(5-Amino-6-(2-methylthiazol-5-yl)pyrazin-2-yl)-N-(4-hydroxycyclohexyl)-4-methylbenzenesulfonamide] | 310 | – | – | – | 1790 | 420 | 620 | 880 | 1570 | 40 | – | – | –
Cc1ccc(S(=O)(=O)NCC(C)(C)O)cc1-c1cnc(N)c(-n2cncn2)n1 [Example 6, 3-(5-Amino-6-(1H-1,2,4-triazol-1-yl)pyrazin-2-yl)-N-(2-hydroxy-2-methylpropyl)-4-methylbenzenesulfonamide] | – | – | – | – | 7280 | > 9400 | 2310 | 9010 | 7120 | – | – | – | –
Cc1ccc(S(=O)(=O)NCCC(C)(C)O)cc1-c1cnc(N)c(-c2cccnc2OC(C)C)n1 [Reference example 119.12, 3-(5-amino-6-(2-isopropoxypyridin-3-yl)pyrazin-2-yl)-N-(3-hydroxy-3-methylbutyl)-4-methylbenzenesulfonamide] | > 10000 | – | – | > 10000 | > 10000 | – | – | – | – | – | not shown any activity | – | –
Cc1ccc(S(=O)(=O)NOCC(C)C)cc1-c1cnc(N)c(-n2cncn2)n1 [Example 112.4, 3-(5-Amino-6-(1H-1,2,4-triazol-1-yl)pyrazin-2-yl)-N-isobutoxy-4-methylbenzenesulfonamide] | 400 | 93 | 80 | 70 | > 3000 | > 10000 | 560 | > 10000 | 1100 | 190 | – | – | –
Cc1ncc(-c2nc(-c3cc(S(=O)(=O)NCCCO)ccc3C)cnc2N)s1 [Example 10, 3-(5-Amino-6-(2-methylthiazol-5-yl)pyrazin-2-yl)-N-(3-hydroxypropyl)-4-methylbenzenesulfonamide] | 600 | – | – | – | 6310 | 210 | 890 | 1880 | 1890 | 60 | – | – | –
Cc1ccc(S(=O)(=O)NCC(C)(C)O)cc1-c1cnc(N)c(-c2nn(C)nc2C)n1 [Example 19, 3-[5-Amino-6-(2,5-dimethyl-2H-[1,2,3]triazol-4-yl)-pyrazin-2-yl]-N-(2-hydroxy-2-methyl-propyl)-4-methyl-benzenesulfonamide] | 70 | – | – | – | 280 | – | 140 | 420 | 3850 | 20 | – | – | –
Cc1ccc(S(=O)(=O)NC2CC3(CC(O)C3)C2)cc1-c1cnc(N)c(-c2cn(C)nc2C)n1 (stereo not shown) [Example 74, 3-(5-Amino-6-(1,3-dimethyl-1H-pyrazol-4-yl)pyrazin-2-yl)-N-(6-hydroxyspiro[3.3]heptan-2-yl)-4-methylbenzenesulfonamide] | 6860 | 41 | – | – | > 10000 | > 10000 | 830 | 3500 | – | 380 | – | 30 | –
Cc1ncc(-c2nc(-c3cc(S(=O)(=O)NC4CCC(F)(F)CC4)ccc3C)cnc2N)s1 [Example 55, 3-(5-Amino-6-(2-methylthiazol-5-yl)pyrazin-2-yl)-N-(4,4-difluorocyclohexyl)-4-methylbenzenesulfonamide] | 1240 | – | – | – | 2670 | 640 | 120 | 620 | 3740 | 30 | – | – | –
Cc1ccc(S(=O)(=O)NC[C@@H]2COCCN2C)cc1-c1cnc(N)c(-c2cn(C)nc2C)n1 (single isomer, unassigned) [Example 128.3a, (R)-3-(5-Amino-6-(1,3-dimethyl-1H-pyrazol-4-yl)pyrazin-2-yl)-4-methyl-N-((4-methylmorpholin-3-yl)methyl)benzenesulfonamide or (S)-3-(5-Amino-6-(1,3-dimethyl-1H-pyrazol-4-yl)pyrazin-2-yl)-4-methyl-N-((4-methylmorpholin-3-yl)methyl)benzenesulfonamide] | 2100 | – | – | 5150 | – | > 10000 | – | – | > 10000 | – | – | – | –
Cc1ccc(S(=O)(=O)NCC(C)(C)O)cc1-c1cnc(N)c(-c2cnn(C)n2)n1 [Example 18, 3-[5-Amino-6-(2-methyl-2H-[1,2,3]triazol-4-yl)-pyrazin-2-yl]-N-(2-hydroxy-2-methyl-propyl)-4-methyl-benzenesulfonamide] | – | – | – | – | 2600 | > 10000 | 2800 | 5550 | 8600 | – | – | – | –
Cc1ncc(-c2nc(-c3cc(S(=O)(=O)NCC(C)(C)O)ccc3C)cnc2N)s1 [Example 7, 3-(5-Amino-6-(2-methylthiazol-5-yl)pyrazin-2-yl)-N-(2-hydroxy-2-methylpropyl)-4-methylbenzenesulfonamide] | – | – | – | – | 3460 | 390 | 990 | 920 | 1950 | – | – | – | –
Cc1ccc(S(=O)(=O)NCC2COCCN2C)cc1-c1cnc(N)c(-c2cn(C)nc2C)n1 (single isomer, unassigned) [Example 128.3b, (R)-3-(5-Amino-6-(1,3-dimethyl-1H-pyrazol-4-yl)pyrazin-2-yl)-4-methyl-N-((4-methylmorpholin-3-yl)methyl)benzenesulfonamide or (S)-3-(5-Amino-6-(1,3-dimethyl-1H-pyrazol-4-yl)pyrazin-2-yl)-4-methyl-N-((4-methylmorpholin-3-yl)methyl)benzenesulfonamide] | 3820 | 55 | 370 | 4970 | – | > 10000 | – | – | 4600 | – | – | – | 540
Cc1ncc(-c2nc(-c3cc(S(=O)(=O)N[C@H]4CC[C@@H](O)CC4)ccc3C)cnc2N)s1 [Example 87, 3-(5-Amino-6-(2-methylthiazol-5-yl)pyrazin-2-yl)-N-((1s,4s)-4-hydroxycyclohexyl)-4-methylbenzenesulfonamide] | 1220 | – | – | – | 3400 | 320 | 270 | 1840 | 1570 | 30 | – | – | –

Further lines, with some results ahead:

IC50 [1] [nM] | IC50 [2] [nM] | IC50 [3] [nM] | IC50 [4] [nM] | IC50 [5] [nM] | IC50 [6] [nM] | IC50 [7] [nM] | IC50 [8] [nM] | IC50 [9] [nM] | IC50 ([10]; read-out: Assay F PI3Kδ IC50) [nM] | activity in assay E ([2]; TR-FRET Adapta, PI 3-kinase gamma) | Compound | Assay M RLM CI(int) [11] [µL/min/mg] | IC50 [10] [nM]
3530 | 525 | 1340 | 1970 | 8490 | > 9100 | > 9100 | 7600 | 940 | 2040 | – | Cc1ccc(S(=O)(=O)NCCC(C)(C)O)cc1-c1cnc(N)c(-c2ccc(N3CCCCC3)nc2)n1 [Example 119.23] | – | –
2820 | 1000 | 610 | 2690 | 3810 | > 9100 | > 9100 | 4910 | 6200 | 2300 | – | Cc1ccc(S(=O)(=O)NCCC(C)(C)O)cc1-c1cnc(N)c(-c2cccnc2F)n1 [Example 119.1] | – | –
7160 | 362 | 1450 | 2810 | 6170 | > 9100 | > 9100 | > 9100 | 1560 | 2540 | – | Cc1ccc(S(=O)(=O)NCCC(C)(C)O)cc1-c1cnc(N)c(-c2ccc(N3CCCC3)nc2)n1 [Example 119.17] | – | –
4960 | 667 | 1160 | 3140 | 4390 | > 9100 | > 9100 | 8530 | 7350 | 1440 | – | COc1ccc(-c2nc(-c3cc(S(=O)(=O)NCCC(C)(C)O)ccc3C)cnc2N)c(C)n1 [Example 119.14] | – | –
470 | – | – | – | 9080 | 570 | 920 | 590 | 2640 | 70 | – | Cc1ncc(-c2nc(-c3cc(S(=O)(=O)NCCC(C)(C)O)ccc3C)cnc2N)s1 [Example 119.29] | – | –
> 10000 | 370 | 2300 | > 10000 | > 10000 | > 10000 | 9600 | – | > 10000 | 2200 | – | Cc1ccc(S(=O)(=O)NCC2CN(C)CCO2)cc1-c1cnc(N)c(-c2cn(C)nc2C)n1 (stereo not shown) [Example 128.5, 3-(5-Amino-6-(1,3-dimethyl-1H-pyrazol-4-yl)pyrazin-2-yl)-4-methyl-N-((4-methylmorpholin-2-yl)methyl)benzenesulfonamide] | – | –

Reference: patent US10004732B2 (Novartis AG, priority 2014, dated 2018)
